Reference: patent publication US20240400547A1, “2,6-PIPERIDINEDIONE COMPOUND AND APPLICATION THEREOF” (MEDSHINE DISCOVERY INC., priority 2021, published 2024)
Structures can show the parent of a compound that is named as a salt.

Legend:
OCI-LY10 = test: Antiproliferative effect in lymphoma cell line OCI-LY10 (CellTiter-Glo); type: cell-based, human; settings: OCI-LY10, 5 days; for IC50: Homo sapiens, 120 h
Description: (§1) Experimental purpose: The experiment aims to evaluate the inhibitory effects of the test compounds on cell proliferation in the diffuse large B-cell lymphoma (DLBCL) cell lines OCI-LY10 and TMD-8.
(§2) The tumor cell lines were cultured in a 37° C., 5% CO2 incubator under the above culture conditions. Regular passage, and cells in logarithmic growth phase were taken for plating.
(§3) • (1) Cells were stained with trypan blue and viable cells were counted. • (2) The cell concentration was adjusted to an appropriate concentration.
(§4) • (3) 100 μL of cell suspension per well was added to the culture plate as shown above. • (4) The culture plate was cultured overnight in a 37° C., 5% CO2 incubator with 100% relative humidity.
(§5) Preparation of stock solution storage plate with 1000 times the initial concentration of the compound: The compound was serially diluted with DMSO from the highest concentration to the lowest concentration. The solution was prepared as needed each time.
(§6) 4. Preparation of 1000× Compound Working Solution and Cell Treatment with Compounds • (1) Preparation of the working solution with 5 times the initial concentration of the compound: For 3-fold dilution of the compound, 30 μL of the compound from a stock solution at 1000-fold concentration was taken, and 20 μL of DMSO was added to the subsequent wells. Then, 10 μL was transferred from one concentration to the next in sequence. For 5-fold dilution of the compound, 30 μL of the compound from a stock solution at 1000-fold concentration was taken, and 24 μL of DMSO was added to the subsequent wells. Then, 6 μL was transferred from one concentration to the next in sequence. 20 μL of DMSO was added to the vehicle control. The 1000-fold concentrated compound was diluted 200 times with culture medium, i.e., 1 μL of the 1000-fold diluted compound is added to 199 μL of culture medium, and the mixture was homogenized using a pipette. • (2) Compound addition: 25 μL of the 5-fold compound solution was added to the cell culture plate. • (3) The 96-well cell plate was returned to the incubator to culture OCI-LY10 (with either 3-fold or 5-fold dilution, incubated with compounds added for 5 days) and TMD-8 (with either 3-fold or 5-fold dilution, incubated with compounds added for 5 days).
(§7) The following steps were performed according to the instructions of Promega CellTiter-Glo luminescent cell viability assay kit (Promega-G7573). • (1) CellTiter-Glo buffer was melted and brought to room temperature. • (2) CellTiter-Glo substrate was brought to room temperature. • (3) CellTiter-Glo working solution was prepared by adding 10 mL of CellTiter-Glo buffer to a vial of CellTiter-Glo substrate to dissolve the substrate. • (4) The mixture was slowly vortexed and shaken to be fully dissolved. • (5) The cell culture plate was taken out and left for 30 minutes to equilibrate to room temperature. • (6) 60 μL of CellTiter-Go working solution was added per well (equal to half the volume of cell culture medium per well). The cell plate was wrapped in aluminum foil to be protected from light. • (7) The culture plate was shaken on an orbital shaker for 2 minutes to induce cell lysis. • (8) The culture plate was left at room temperature for 10 minutes to stabilize the luminescent signal. • (9) The luminescent signal was detected on a 2104 EnVision plate reader.
(§8) The inhibition rate (IIR) of the test compound was calculated using the following formula: IR (%)=(1−RLU compound/RLU vehicle control)*100%. The inhibition rates of compounds at different concentrations were calculated in Excel, and then GraphPad Prism software was used to plot inhibition curves and calculate relevant parameters, including minimum inhibition rate, maximum inhibition rate, and IC50.

TMD-8 = test: Antiproliferative effect in lymphoma cell line TMD-8 (CellTiter-Glo); type: cell-based; settings: TMD-8, 5 days; for IC50: Homo sapiens, TMD8, 120 h
Description: as §1, §2, §3, §4, §5, §6, §7, §8

SU-DHL-2 = test: Antiproliferative effect in lymphoma cell line SU-DHL-2 (CellTiter-Glo); type: cell-based, human; settings: SU-DHL-2, 4 days; for IC50: Homo sapiens, 96 h
Description: Experimental purpose: The experiment aims to evaluate the inhibitory effects of the test compounds on cell proliferation in the lymphoma cell line SU-DHL-2.
as §2, §3
• (3) 50 μL of cell suspension per well was added to the culture plate as shown in the figure above. • (4) The culture plate was cultured overnight in a 37° C., 5% CO2 incubator with 100% relative humidity.
Compounds were added using the Echo655 instrument. The volume of compound added was 50 nL, with a final DMSO concentration of 0.1%. The culture plate was centrifuged at 1000 rpm for 1 minute, then incubated for 4 days in an incubator at 37° C., 5% CO2, and with 100% relative humidity.
as §7, with “adding” for “adding 10 mL of”, “substrate;” for “substrate.”, “25” for “60”, “CellTiter-Glo” for “CellTiter-Go”
as §8, with “(IR)” for “(IIR)”, “(%)=(1−(RLU” for “(%)=(1−RLU”, “compound/RLU blank control)/(RLU” for “compound/RLU”, “control−RLU blank control)×100%.” for “control)*100%.”

| Compound | IC50 (OCI-LY10) | IC50 (TMD-8) | IC50 (SU-DHL-2) | Maximum inhibition rate (OCI-LY10) | Maximum inhibition rate (TMD-8) | Maximum inhibition rate (SU-DHL-2) |
| --- | --- | --- | --- | --- | --- | --- |
| O=C1CCC(c2coc3cc(NC(=O)CN4CCN(C[C@H]5CC[C@H](N6CC(NC(=O)c7coc(-c8ccnc(NCC9CC9)c8)n7)C(C(F)F)N6)CC5)CC4)ccc23)C(=O)N1 (some centres unmarked) [Hydrochloride of WX002] | 0.192 µM | 0.092 µM |  | 63.27% | 83.31% |  |
| O=C1CCC(c2noc3ccc4c(NC(=O)CN5CCN(C[C@H]6CC[C@H](n7cc(NC(=O)c8coc(-c9ccnc(NCC%10CC%10)c9)n8)c(C(F)F)n7)CC6)CC5)cccc4c23)C(=O)N1 (some centres unmarked) [Hydrochloride of WX014] | 0.0137 µM | 0.0103 µM | 0.0287 µM | 94.54% | 89.86% | 93.55% |
| CC(C)(O)c1cc2nc([C@H]3CC[C@H](CN4CCN(CC(=O)Nc5ccc6c(C7CCC(=O)NC7=O)noc6c5)CC4)CC3)sc2cc1NC(=O)c1cccc(C(F)(F)F)n1 (some centres unmarked) [Formate of WX026] |  | 0.00865 µM | 0.00091 µM |  | 99.92% | 100.08% |
| CC(C)(O)c1cc2nc([C@H]3CC[C@H](CN4CCN(CC(=O)Nc5ccc6c(ccc7onc(C8CCC(=O)NC8=O)c76)c5)CC4)CC3)sc2cc1NC(=O)c1cccc(C(F)(F)F)n1 (some centres unmarked) [Formate of WX020] | 0.025 µM |  |  | 94.96% |  |  |
| O=C1CCC(c2noc3ccc4c(NC(=O)C(F)(F)C5CCN(CC6CCC(n7cc(NC(=O)c8coc(-c9ccnc(NCC%10CC%10)c9)n8)c(C(F)F)n7)CC6)CC5)cccc4c23)C(=O)N1 (centres unmarked) [Hydrochloride of WX018] | 0.00699 µM | 0.0129 µM | 0.0117 µM | 99.92% | 99.53% | 100.27% |

Second part, led by results:

| IC50 (OCI-LY10) | IC50 (TMD-8) | IC50 (SU-DHL-2) | Compound | Maximum inhibition rate (OCI-LY10) | Maximum inhibition rate (TMD-8) | Maximum inhibition rate (SU-DHL-2) |
| --- | --- | --- | --- | --- | --- | --- |
| 0.017 µM | 0.017 µM | 0.0252 µM | O=C1CCC(c2coc3ccc4c(NC(=O)CN5CCN(C[C@H]6CC[C@H](n7cc(NC(=O)c8coc(-c9ccnc(NCC%10CC%10)c9)n8)c(C(F)F)n7)CC6)CC5)cccc4c23)C(=O)N1 (some centres unmarked) [Trifluoroacetate of WX011] | 93.42% | 94.65% | 99.89% |
| 0.0853 µM |  |  | O=C1CCC(c2noc3c(NC(=O)CN4CCN(C[C@H]5CC[C@H](n6cc(NC(=O)c7coc(-c8ccnc(NCC9CC9)c8)n7)c(C(F)F)n6)CC5)CC4)cccc23)C(=O)N1 (some centres unmarked) [Hydrochloride of WX028] | 99.01% |  |  |
| 0.0244 µM |  |  | O=C1CCC(c2noc3cc(NC(=O)CN4CCN(C[C@H]5CC[C@H](n6cc(NC(=O)c7coc(-c8ccnc(NCC9CC9)c8)n7)c(C(F)F)n6)CC5)CC4)ccc23)C(=O)N1 (some centres unmarked) [Hydrochloride of WX025] | 97.39% |  |  |
